# Experimental data: patent US20070264276A1, “Vaccine for the prevention and treatment of Alzheimer's and amyloid related diseases” (priority 1999, published 2007)
# Square brackets hold non-standard residues; d marks the D form. Ends that are not written are not given here.
# Columns and labels:
# [1] = Immunization of rabbits with KLVFFA peptide, antibody titers; format: in vivo; settings: rabbits immunized, KLH-conjugated peptide, FIG. 7
# Method: Rabbits were immunized with all-D or all-L KLVFFA.
# Standard assays for fibrillogenesis were used to evaluate activity, such as those based on Thioflavine T, circular dichroism and solubility.
# Rabbits were immunized with D- or L-Aβ (16-21) peptide. Antibodies raised were tested for their antifibrillogenic activities by ThT assay and by electron microscopy (EM).
# [2] = tested on: transgenic mouse model of brain amyloidosis; settings: vaccinated transgenic mice; cited from earlier work
Substance,production of antibodies (antibody titers) [1],production of antibodies (antibody titers) ([1]; listed as Aβ 16-21 (all-D)),"formation of β-amyloid plaque, astrogliosis and neuritic dystrophy [2]"
"Aβ (16-21, all-D) ([dK][dL][dV][dF][dF][dA]) [all-D KLVFFA, KLVFFA]",causes production of antibodies,antibodies can be raised,
human aggregated all-L peptide: human aggregated all-L Aβ peptide used as immunogen in the vaccine of Schenk et al. (1999),,,"prevented the formation of β-amyloid plaque, astrogliosis and neuritic dystrophy"
